Data published in patent US20100267561A1, “HERBICIDAL PYRIDAZINONE DERIVATIVES” (priority 2007, published 2010).

Columns and labels:
Type in all cases: in vivo
[1] = tested on: winter barley (Hordeum vulgare); assay: Test B postemergence plant response; conditions: for Plant response rating, Barley: Postemergence, scale 0 to 100, 0 no effect, 100 complete control
Procedure, shortened: (§1)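 Test compounds were applied postemergence to plants 2 to 18 cm tall (1- to 4-leaf stage). After 13 to 15 days in a greenhouse, each species was visually compared with untreated controls and rated 0 (no effect) to 100 (complete control).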

[2] = tested on: windgrass (Apera spica-venti); assay: Test B postemergence plant response; conditions: for Plant response rating, Windgrass: Postemergence
Procedure, shortened: as §1

[3] = tested on: chickweed (Stellaria media); assay: Test B postemergence plant response; conditions: for Plant response rating, Chickweed: Postemergence
Procedure, shortened: as §1

[4] = tested on: wheat (Triticum aestivum); assay: Test B pre-/postemergence plant response; conditions: for Wheat plant response rating: 8 g ai/ha
Procedure, shortened: (§2)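 Seeds were sown and sprayed preemergence, while plants at 2 to 18 cm (1- to 4-leaf stage) got postemergence sprays. Compounds were formulated in a non-phytotoxic solvent mixture with surfactant. After 13 to 15 days in a greenhouse, injury was rated visually against untreated controls, 0 (no effect) to 100 (complete control).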

[5] = tested on: morningglory (Ipomoea coccinea); assay: Test B pre-/postemergence plant response; conditions: for Morningglory plant response rating: 8 g ai/ha
Procedure, shortened: as §2

[6] = tested on: eastern black (E.B.) nightshade (Solanum ptycanthum); assay: Test B pre-/postemergence plant response; conditions: Preemergence
Procedure, shortened: as §2

[7] = tested on: green foxtail (Setaria viridis); assay: Test B pre-/postemergence plant response; conditions: for Foxtail, Green plant response rating: 8 g ai/ha
Procedure, shortened: as §2

[8] = tested on: large crabgrass (Digitaria sanguinalis); assay: Test B pre-/postemergence plant response; conditions: for Crabgrass, Large plant response rating: 8 g ai/ha
Procedure, shortened: as §2

[9] = tested on: surinam grass (Brachiaria decumbens); assay: Test B pre-/postemergence plant response; conditions: for Surinam Grass plant response rating: 8 g ai/ha
Procedure, shortened: as §2

[10] = tested on: goosegrass (Eleusine indica); assay: Test B pre-/postemergence plant response; conditions: for Goosegrass plant response rating: 8 g ai/ha
Procedure, shortened: as §2

[11] = tested on: Russian thistle (Salsola iberica); assay: Test B pre-/postemergence plant response; conditions: Preemergence
Procedure, shortened: as §2

[12] = tested on: cocklebur (Xanthium strumarium); assay: Test B pre-/postemergence plant response; conditions: for Cocklebur plant response rating: 8 g ai/ha
Procedure, shortened: as §2

[13] = tested on: bermudagrass (Cynodon dactylon); assay: Test B pre-/postemergence plant response; conditions: for Bermudagrass plant response rating: 8 g ai/ha
Procedure, shortened: as §2

soybean (Glycine max) = assay: Test B pre-/postemergence plant response; conditions: for Soybean plant response rating: 8 g ai/ha
Procedure, shortened: as §2

[14] = tested on: johnsongrass (Sorghum halepense); assay: Test B pre-/postemergence plant response; conditions: for Johnsongrass plant response rating: 8 g ai/ha
Procedure, shortened: as §2

[15] = tested on: Italian ryegrass (Lolium multiflorum); assay: Test B pre-/postemergence plant response; conditions: for Ryegrass, Italian plant response rating: 8 g ai/ha
Procedure, shortened: as §2

[16] = 8 g ai/ha, postemergence, 0-100 scale
[17] = 62 g ai/ha, scale 0 to 100, 0 no effect, 100 complete control
[18] = Postemergence, 16 g ai/ha, scale 0 to 100
[19] = Postemergence, 62 g ai/ha, scale 0 to 100, 0 no effect, 100 complete control
[20] = Preemergence, 16 g ai/ha, scale 0 to 100 (0 no effect, 100 complete control)
[21] = Preemergence, 31 g ai/ha, scale 0 to 100 (0 no effect, 100 complete control)
[22] = Preemergence, 62 g ai/ha, 0 to 100 scale, 0 no effect, 100 complete control
[23] = Postemergence, 31 g ai/ha, scale 0 to 100, 0 no effect, 100 complete control
[24] = Preemergence, 62 g ai/ha, scale 0 to 100
[25] = 16 g ai/ha, scale 0 to 100 (0 no effect, 100 complete control)
[26] = 31 g ai/ha, scale 0 to 100 (0 no effect, 100 complete control)
[27] = Preemergence, 31 g ai/ha, 0 to 100 scale, 0 no effect, 100 complete control

## Cc1cc(-c2ccc(C(F)(F)F)c(F)c2)nn1-c1c(O)c(C(F)(F)F)nn(C)c1=O [Compound 44]
[1]; [16]
  Barley plant response rating: 15
[1]; 16 g ai/ha
  Plant response rating, Barley: 20
[1]; 31 g ai/ha
  Plant response rating, Barley: 20
[1]; 62 g ai/ha
  Plant response rating, Barley: 20
[2]; [16]
  Windgrass plant response rating: 85
[2]; 16 g ai/ha, scale 0 to 100
  Plant response rating, Windgrass: 85
[2]; [17]
  Plant response rating, Windgrass: 100
[3]; [16]
  Chickweed plant response rating: 0
[3]; 16 g ai/ha, scale 0 to 100
  Plant response rating, Chickweed: 0
[3]; 31 g ai/ha, scale 0 to 100, 0 no effect, 100 complete control
  Plant response rating, Chickweed: 0
[3]; [17]
  Plant response rating, Chickweed: 0
[4]; postemergence, 0-100 scale
  Wheat plant response rating: 55
[4]; [18]
  Plant response rating, Wheat: 90
[4]; [19]
  Plant response rating, Wheat: 95
[4]; [20]
  Plant response rating, Wheat: 0
[4]; [21]
  Plant response rating, Wheat: 10
[4]; [22]
  Plant response rating, Wheat: 90
[4]; Preemergence, scale 0 to 100
  Wheat plant response rating: 0
[5]; postemergence, 0-100 scale
  Morningglory plant response rating: 0
[5]; [18]
  Plant response rating, Morningglory: 0
[5]; [23]
  Plant response rating, Morningglory: 0
[5]; [19]
  Plant response rating, Morningglory: 0
[5]; [20]
  Plant response rating, Morningglory: 0
[5]; [24]
  Plant response rating, Morningglory: 0
[5]; Preemergence, scale 0 to 100
  Morningglory plant response rating: 0
[6]; [25]
  Plant response rating, Nightshade, E. B.: 0
[6]; [26]
  Plant response rating, Nightshade, E. B.: 0
[6]; 62 g ai/ha, scale 0 to 100
  Plant response rating, Nightshade, E. B.: 55
[6]; 8 g ai/ha, scale 0 to 100
  Nightshade, E. B. plant response rating: 0
[7]; postemergence, 0-100 scale
  Foxtail, Green plant response rating: 75
[7]; [18]
  Plant response rating, Foxtail, Green: 95
[7]; [23]
  Plant response rating, Foxtail, Green: 95
[7]; [19]
  Plant response rating, Foxtail, Green: 100
[7]; [20]
  Plant response rating, Foxtail, Green: 98
[7]; [27]
  Plant response rating, Foxtail, Green: 100
[7]; [24]
  Plant response rating, Foxtail, Green: 100
[7]; Preemergence, scale 0 to 100
  Foxtail, Green plant response rating: 40
[8]; postemergence, 0-100 scale
  Crabgrass, Large plant response rating: 60
[8]; [18]
  Plant response rating, Crabgrass, Large: 65
[8]; [23]
  Plant response rating, Crabgrass, Large: 90
[8]; [19]
  Plant response rating, Crabgrass, Large: 98
[8]; [20]
  Plant response rating, Crabgrass, Large: 0
[8]; [27]
  Plant response rating, Crabgrass, Large: 0
[8]; [24]
  Plant response rating, Crabgrass, Large: 0
[8]; Preemergence, scale 0 to 100
  Crabgrass, Large plant response rating: 0
[9]; postemergence, 0-100 scale
  Surinam Grass plant response rating: 98
[9]; [18]
  Plant response rating, Surinam Grass: 100
[9]; [19]
  Plant response rating, Surinam Grass: 100
[9]; [20]
  Plant response rating, Surinam Grass: 0
[9]; [21]
  Plant response rating, Surinam Grass: 0
[9]; [22]
  Plant response rating, Surinam Grass: 20
[9]; Preemergence, scale 0 to 100
  Surinam Grass plant response rating: 0
[10]; postemergence, 0-100 scale
  Goosegrass plant response rating: 60
[10]; [18]
  Plant response rating, Goosegrass: 60
[10]; [23]
  Plant response rating, Goosegrass: 75
[10]; [19]
  Plant response rating, Goosegrass: 90
[10]; [20]
  Plant response rating, Goosegrass: 0
[10]; [27]
  Plant response rating, Goosegrass: 0
[10]; [24]
  Plant response rating, Goosegrass: 0
[10]; Preemergence, scale 0 to 100
  Goosegrass plant response rating: 0
[11]; [25]
  Plant response rating, Russian Thistle: 0
[11]; [26]
  Plant response rating, Russian Thistle: 0
[11]; 62 g ai/ha, scale 0 to 100
  Plant response rating, Russian Thistle: 0
[11]; 8 g ai/ha, scale 0 to 100
  Russian Thistle plant response rating: 0
[12]; postemergence, 0-100 scale
  Cocklebur plant response rating: 0
[12]; [18]
  Plant response rating, Cocklebur: 0
[12]; [23]
  Plant response rating, Cocklebur: 0
[12]; [19]
  Plant response rating, Cocklebur: 0
[12]; [20]
  Plant response rating, Cocklebur: 0
[12]; [27]
  Plant response rating, Cocklebur: 0
[12]; [24]
  Plant response rating, Cocklebur: 0
[12]; Preemergence, scale 0 to 100
  Cocklebur plant response rating: 0
[13]; postemergence, 0-100 scale
  Bermudagrass plant response rating: 65
[13]; [18]
  Plant response rating, Bermudagrass: 90
[13]; [23]
  Plant response rating, Bermudagrass: 95
[13]; [19]
  Plant response rating, Bermudagrass: 100
[13]; Preemergence, scale 0 to 100 (0 no effect, 100 complete control)
  Bermudagrass plant response rating: 0
[13]; [20]
  Plant response rating, Bermudagrass: 0
[13]; [27]
  Plant response rating, Bermudagrass: 0
[13]; [24]
  Plant response rating, Bermudagrass: 0
Soybean (Glycine max); postemergence, 0-100 scale
  Soybean plant response rating: 0
Soybean (Glycine max); [18]
  Plant response rating, Soybean: 0
Soybean (Glycine max); [19]
  Plant response rating, Soybean: 0
Soybean (Glycine max); [21]
  Plant response rating, Soybean: 70
Soybean (Glycine max); [24]
  Plant response rating, Soybean: 90
Soybean (Glycine max); Preemergence, scale 0 to 100
  Soybean plant response rating: 0
[14]; postemergence, 0-100 scale
  Johnsongrass plant response rating: 55
[14]; [18]
  Plant response rating, Johnsongrass: 95
[14]; [23]
  Plant response rating, Johnsongrass: 98
[14]; [19]
  Plant response rating, Johnsongrass: 100
[14]; [20]
  Plant response rating, Johnsongrass: 0
[14]; [27]
  Plant response rating, Johnsongrass: 0
[14]; [24]
  Plant response rating, Johnsongrass: 95
[14]; Preemergence, scale 0 to 100
  Johnsongrass plant response rating: 0
[15]; postemergence, 0-100 scale
  Ryegrass, Italian plant response rating: 90
[15]; [18]
  Plant response rating, Ryegrass, Italian: 95
[15]; [23]
  Plant response rating, Ryegrass, Italian: 100
[15]; [19]
  Plant response rating, Ryegrass, Italian: 100
[15]; [20]
  Plant response rating, Ryegrass, Italian: 90
[15]; [21]
  Plant response rating, Ryegrass, Italian: 90
[15]; [24]
  Plant response rating, Ryegrass, Italian: 100
[15]; Preemergence, scale 0 to 100
  Ryegrass, Italian plant response rating: 20
